In patent US11065264B2, “Metal-olsalazine coordination polymers for medical applications” (THE REGENTS OF THE UNIVERSITY OF CALIFORNIA, priority 2016, dated 2021):

Assays:
[1] = Olsalazine release from pressed pellets under simulated gastrointestinal conditions; type: physicochemical
Protocol: To evaluate the potential utility of Ca(H2olz).xH2O coordination solids in the treatment of ulcerative colitis (x=4, 2, and 0 for 1D, 2D, and 3D materials, respectively), each material was tested for drug release in comparison with Na2(H2olz), which is the salt used in the commercial formulation (available as Dipentum®). Each material was pressed into a pellet and exposed to solutions that mimic the pH of the stomach, small intestine, and colon. The pH and composition of the release medium was changed by addition of buffers in accordance to the expected transit times of a pill through the gastrointestinal tract: the first two hours were held at pH 1.1, the next two hours at pH 6.0, and the final six hours at pH 7.3. The vessels containing the pellet in release media were shaken at 60 rpm at 37° C. to simulate the motion and temperature of the body.
Sample pellets were prepared from pure material without binders or other agents typically used for pill preparation in the pharmaceutical industry. This was done in order to probe the properties of each material without influence from any excipients. Due to this method of preparation, however, pellets were susceptible to disintegration, which can accelerate the observed dissolution rates. […] The variability in pellet integrity likely contributed to the large observed standard deviation.
FIG. 3 is a graph of the release of olsalazine from Na2(H2olz) (circles) and Ca(H2olz).xH2O materials under simulated gastrointestinal conditions (x=4, 2, 0, denoted by squares, triangles, and diamonds, respectively). Error bars represent standard deviation across three independent data sets, where the quantity of olsalazine in solution was measured spectroscopically (λ=360 nm). The release media were changed throughout the study to emulate the typical pH and transit times of a pill passing through the stomach (pH 1.1, 2 h), small intestine (pH 6.0, 2 h), and colon (pH 7.3, 6 h).

[2] = Content of active pharmaceutical ingredient by weight; type: physicochemical
[3] = treatment of ulcerative colitis; cited from earlier work

- amount of drug (olsalazine) released at the four-hour time point ([1]; pellet without excipients, pH 1.1 2 h then pH 6.0 2 h, 37° C., 60 rpm, absorbance 360 nm): over 90%
- pellet disintegration in contact with the release solution ([1]; pellets of pure material without binders): partially disintegrated
- rate of olsalazine release/dissolution, Na2(H2olz) compared with Ca(H2olz) materials ([1]; simulated gastrointestinal environment, pH 6.0 and above): dissolved more rapidly
- percentage of the active pharmaceutical ingredient (olsalazine) by weight [2]: 79%
SMILES: O=C(O)c1cc(/N=N/c2ccc(O)c(C(=O)O)c2)ccc1O [Na2(H2olz), olsalazine disodium]
- patients discontinuing treatment because of diarrhea [3]: over 10%
- patients experiencing diarrhea as a side effect [3]: ≤ 35%
